Source: patent EP4810499A1, “TREATMENT OF BEHÇET'S DISEASE” (Ganzhou Hemay Pharmaceutical, Co., Ltd, priority 2023, dated 2025)

System: healthy Chinese subjects
Assay: Phase I clinical trial, multiple oral administrations (Example 6)
Type: in vivo, human
Details: 15 mg BID, 30 mg BID, 60 mg BID and 75 mg BID, 36 healthy Chinese subjects
Description: A Phase I clinical trial enrolling a total of 36 healthy Chinese subjects was conducted, with multiple oral administrations of the compound of Example 2 at doses of 15 mg BID, 30 mg BID, 60 mg BID and 75 mg BID, and placebo, respectively.

For `CCOc1cc([C@@H](CS(C)(=O)=O)N2C(=O)c3csc(NC(C)=O)c3C2=O)ccc1OC` [Example 2, (S)-N-[5-[1-(3-ethoxy-4-methoxyphenyl)-2-(methylsulfonyl)ethyl]-4,6-dioxo-5,6-dihydro-4H-thieno[3,4-c]pyrrol-1-yl]acetamide], the safety and tolerability was “favorable safety and good tolerability”.
